These results are taken from patent US20260022322A1, “MULTIMODAL BIOPHYSICAL CHARACTERIZATION APPARATUS, SYSTEM, METHOD, AND USE” (Yigong Ruixin (Xiamen) Technology Co., Ltd, priority 2023, published 2026).

Experiment [1] has as its system macrophage cell line THP-1. The experiment in a line: Nuclear hardness of activated THP-1 by magnetic material method and fluorescence method. The format is cell-based. To be noted: THP-1 activated to M1-type macrophages. From the text: S1: Provide a chip whose surface is covered with PDMS nano-magnetic micropillars. The micropillars contain a fluorescent substance and have an extracellular matrix coating.
S2: Culture the macrophage cell line THP-1 on this chip. Contact between the THP-1 cells and the chip is made by controlling the height of the culture medium.
S3: Add lipopolysaccharide (LPS) to the culture medium to activate the THP-1 cells, causing them to transform into M1-type macrophages.
S4: After several days of cultivation, use the magnetic material method to turn on the magnetic field and measure the reflected light attenuation. After turning off the magnetic field, measure the light reflection signal attenuation value and frequency of each micropillar, and sequentially calculate the softness/hardness of the nucleus at each position.
S5: Use paraformaldehyde to fix the cells on the chip, and use DAPI to stain the nuclei.
S6: Using the fluorescence method, use a confocal microscope to perform a Z-axis tomographic scan from the top to the bottom of the micropillars, and analyze the depth of the DAPI signal of the nucleus between the micropillars. […]
The results measured by the magnetic material method and the fluorescence method are the same (FIG. 33), proving that the accuracy of measuring nuclear hardness by the magnetic material method has been cross-validated by the fluorescence method.

For the next experiment, the system named is tumor cells. The experiment in a line: Immune-tumor cell interaction on cell mechanics chip with drug intervention. The class given is cell-based. From the text:
S1. Prepare the chip: Select a cell mechanics chip with a micropillar structure. The top of the micropillars is coated with a suitable extracellular matrix (ECM) to promote the attachment and growth of tumor cells and immune cells. Use an anti-adhesion treatment on the side surfaces of the micropillars and in the space between them.
S2. Seed tumor cells and immune cells: Seed tumor cells and immune cells (such as NK cells or T cells) separately on the mechanics chip, allowing them to interact.
S3. Monitor the mechanical properties of the tumor cells: Use the light reflection signal and micropillar deflection to monitor in real-time the changes in the cell mechanical force and hardness of the tumor cells during their interaction with the immune cells.
S4. […] Softer tumor cells (with smaller cell mechanical force) are difficult for immune cells to recognize and kill.
S5. Drug intervention: Add the drug JAS, which makes tumor cells harder, to the culture medium, and observe the changes in the cell mechanical force and hardness of the tumor cells.
S6. Evaluate the effect of drug intervention: Under the action of the drug, the tumor cells become harder, and the cell mechanical force increases (FIG. 32). It was observed that the killing effect of immune cells on tumor cells was enhanced accordingly.

The mark [2] stands for this setting: drug added to culture medium, micropillar chip, light reflection signal (FIG. 32).

As to lipopolysaccharide [LPS], the “sagging depth of the nucleus between the micropillars” value in experiment [1] (DAPI, confocal Z-axis scan (fluorescence method)) is reported as “becomes deeper”. Also, the nuclear hardness entry in experiment [1] (magnetic material method and fluorescence method gave the same result (FIG. 33)) was “softer”.

As to `C/C1=C\[C@H](C)C[C@H](C)OC(=O)C[C@H](c2ccc(O)cc2)NC(=O)[C@@H](Cc2c(Br)[nH]c3ccccc23)N(C)C(=O)[C@H](C)NC(=O)[C@@H](C)C1` [JAS], in the experiment with tumor cells (setting [2]), the “cell mechanical force of the tumor cells” value is recorded as “increases” and the “hardness of the tumor cells” value was “become harder”. Also, in the experiment with tumor cells (tumor cells co-seeded with immune cells (such as NK cells or T cells), under the action of the drug), the “killing effect of immune cells on tumor cells” value is given as “enhanced”.
